Test results as given in ChEMBL document CHEMBL1146404, “Antihyperglycemic activity of phenolics from Pterocarpus marsupium” (1997).

What was measured:
Type in all cases: functional
Rattus norvegicus [1] = assay: Antihyperglycemic activity in streptozotocin-induced nonfasted diabetic rat assessed as decrease in blood glucose level at 20 mg/kg, po administered for 3 days measured 1 hr after last dose; design: scale not given: the % may be the effect or the level left
Rattus norvegicus [2] = species on record: Rattus norvegicus; assay: Decrease in body weight in nondiabetic rat; design: scale not given: the % may be the effect or the level left
Rattus norvegicus [3] = assay: Effect on nondiabetic rat assessed as blood glucose level per 100 mL at 20 mg/kg, po
Rattus norvegicus [4] = assay: Antihyperglycemic activity in streptozotocin-induced nonfasted diabetic rat assessed as decrease in blood glucose level at 30 mg/kg, po administered for 3 days measured 1 hr after last dose; design: scale not given: the % may be the effect or the level left

SMILES | Activity (Rattus norvegicus [1]) | Activity (Rattus norvegicus [2]) | Activity (Rattus norvegicus [3]) | Activity (Rattus norvegicus [4])
COc1cc(O)cc2c1C(=O)C(O)(Cc1ccc(O)cc1)O2 (configuration not stated) [CARPUSIN] | 33% | 20% | 64% | –
COc1cc(/C=C/c2ccc(O)cc2)cc(OC)c1 [PTEROSTILBENE] | 11% | 20% | 65% | –
CN(C)C(=N)NC(=N)N [METFORMIN] | – | – | – | 48%
